Results on 12 compounds are retold here after patent EP2322149A1, “Methods and compositions for the treatment of ischemia” (Universidad del Pais Vasco, priority 2009, dated 2011).

The target of one assay is T1, P2X2 (Homo sapiens, UniProt Q9UBL9).
T1 sequence (Q9UBL9 1-471): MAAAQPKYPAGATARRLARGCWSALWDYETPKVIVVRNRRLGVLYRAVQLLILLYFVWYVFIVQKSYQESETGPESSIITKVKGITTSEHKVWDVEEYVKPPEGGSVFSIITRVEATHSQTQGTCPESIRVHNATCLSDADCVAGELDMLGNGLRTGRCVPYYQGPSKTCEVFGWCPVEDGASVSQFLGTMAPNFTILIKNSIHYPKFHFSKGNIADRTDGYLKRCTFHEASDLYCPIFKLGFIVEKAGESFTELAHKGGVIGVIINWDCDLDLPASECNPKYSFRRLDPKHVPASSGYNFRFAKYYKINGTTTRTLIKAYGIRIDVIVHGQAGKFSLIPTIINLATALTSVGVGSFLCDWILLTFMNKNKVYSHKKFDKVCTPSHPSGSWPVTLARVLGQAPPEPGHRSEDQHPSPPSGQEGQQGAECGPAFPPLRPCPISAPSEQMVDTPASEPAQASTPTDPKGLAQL
The note with it: read-out: IC50 P2X2; cited from earlier work.

Assay [1] concerns cultured optic nerve oligodendrocytes. The assay is described as follows: ATP release measurement (luciferin/luciferase) in oligodendrocyte cultures after OGD. Type of assay: cell-based, Sprague-Dawley rats. Here is the method:
(§1) Primary cultures of oligodendrocytes derived from optic nerves of 12 day-old Sprague-Dawley rats were obtained as previously described (Matute et al., 1997 Proc Natl Acad Sci U S A 94:8830-8835.).Cells were maintained at 37°C and 5% CO2 in a chemically defined medium (Matute et al., 1997 Proc Natl Acad Sci U S A 94:8830-8835.). After 2-4 days in vitro, cultures were composed of at least 98% 04/Ga1C^+ cells. No microglial cells were detected in these cultures. […] Cell death was determined 24h later using calcein-AM (Invitrogen) as previously described (Matute et al., 1997 Proc Natl Acad Sci U S A 94:8830-8835.). Antagonists were present during in vitro ischaemia and during the next 24h incubation period. […] To assay the levels of reactive oxygen species (ROS), cells were loaded with 40 µM 2',7'- dichlorodihyfluoresceindiacetate (DCFDA; Invitrogen) and 1 µM calcein red-orange (Molecular Probes) immediately after OGD. Calcein was used to quantify the number of cells within the reading field. Fluorescence was measured as above and values were plotted as the percentage of DCFDA/calcein red-orange fluorescence versus control. The changes in mitochondrial membrane potential were monitored with 5,5',6,6'-tetrachloro-1,1',3,3'-tetraethylbenzimidazolcarbocyanine iodide (JC-1; Molecular Probes). Immediately after OGD, cells were loaded with JC-1 (3 µM) at 37°C for 30 min. The changes in the membrane potential were calculated as the red (emission at 590)/green (emission at 520) ratio in each condition and results were normalized to control.
ATP levels were measured using a Luciferin/Luciferase assay kit (Invitrogen) after 1h normoxia or OGD in oligodendrocyte cultures and in isolated optic nerves according to the manufacturer's instructions. The luminescence was measured with a luminometer Synergy-HT (BioTek) with an integration time of 3 sec. Because ATP was measured in the culture medium and in the solution bathing optic nerves, the concentration of ATP at the extracellular surface, near the vicinity of the receptor was underestimated (Joseph et al., 2003. J Biol Chem 278:23331-23342). The limit of ATP detection was 1 nM and luminescence was linear with increasing ATP concentrations to 1000 nM. The total amount of ATP was calculated according to standard curves and ATP release was expressed in percentage vs control.

In assay [2] the test system is optic nerve oligodendrocytes. The assay is described as follows: Oxygen and glucose deprivation (OGD) cell death in oligodendrocyte cultures (calcein-AM). Type of assay: cell-based, Sprague-Dawley rats. As to conditions: 1h OGD, calcein 24h later; PPADS 100 µM, BBG 50 nM, CNQX 30 µM, APV 100 µM, apyrase 20 U/ml, ARL67156 100 µM, CBX 20 µM, FFA 100 µM, MFQ 1 nM. The method, then:
as §1

In a further assay the test system is optic nerves. The assay is described as follows: Optic nerve ischaemia (OGD), tissue damage by LDH release. More on the design: species or system rats. As to conditions: P28 rat optic nerves, 1h OGD + 2h reperfusion; PPADS 1 mM, BBG 50 nM, oATP 1 mM, apyrase 20 U/ml, MFQ 1 µM, CBX 100 µM, FFA 1 mM. The method, then:
After 1h OGD at 37°C, the medium was replaced with fresh solution containing glucose and equilibrated with 95% O2, 5% CO2 and the nerves were incubated for another 2h at 37°C to simulate reperfusion.
For orientation: LDH in the medium is a marker of cell lysis.

The next assay has as its target T2, P2X7 (Homo sapiens, UniProt Q99572).
T2 sequence (Q99572 1-595): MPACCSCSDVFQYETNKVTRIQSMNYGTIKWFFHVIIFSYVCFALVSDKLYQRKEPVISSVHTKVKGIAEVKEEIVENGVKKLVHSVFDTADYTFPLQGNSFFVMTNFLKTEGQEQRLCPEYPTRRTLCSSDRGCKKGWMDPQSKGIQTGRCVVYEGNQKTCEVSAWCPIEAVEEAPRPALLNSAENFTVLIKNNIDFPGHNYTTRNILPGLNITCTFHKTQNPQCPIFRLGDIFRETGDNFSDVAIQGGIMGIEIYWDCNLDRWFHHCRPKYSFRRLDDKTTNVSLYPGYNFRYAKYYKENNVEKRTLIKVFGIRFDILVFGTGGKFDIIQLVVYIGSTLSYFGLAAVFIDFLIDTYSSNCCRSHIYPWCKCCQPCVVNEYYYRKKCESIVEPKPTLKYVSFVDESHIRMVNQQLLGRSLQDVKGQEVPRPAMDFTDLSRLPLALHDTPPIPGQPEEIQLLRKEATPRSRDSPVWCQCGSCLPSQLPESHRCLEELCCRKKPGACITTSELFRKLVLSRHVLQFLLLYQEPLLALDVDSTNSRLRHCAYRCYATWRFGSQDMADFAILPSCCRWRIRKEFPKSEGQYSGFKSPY
The note with it: cited from earlier work.

Another assay has as its target T3, P2X3 (Homo sapiens, UniProt P56373).
T3 sequence (P56373 1-397): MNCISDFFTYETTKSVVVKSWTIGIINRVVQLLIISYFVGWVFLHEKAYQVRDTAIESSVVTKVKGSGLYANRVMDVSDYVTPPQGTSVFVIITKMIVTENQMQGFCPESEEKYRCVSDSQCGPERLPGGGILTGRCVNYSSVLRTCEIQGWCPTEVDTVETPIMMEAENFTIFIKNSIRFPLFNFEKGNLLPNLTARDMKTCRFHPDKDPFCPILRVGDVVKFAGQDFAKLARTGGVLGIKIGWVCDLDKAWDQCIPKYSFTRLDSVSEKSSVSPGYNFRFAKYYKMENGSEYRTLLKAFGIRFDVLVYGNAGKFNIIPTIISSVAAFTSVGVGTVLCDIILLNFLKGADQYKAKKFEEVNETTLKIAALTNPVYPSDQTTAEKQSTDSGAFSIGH
The note with it: read-out: IC50 P2X3; cited from earlier work.

Another assay addresses T4, P2X1 (Homo sapiens, UniProt P51575).
T4 sequence (P51575 1-399): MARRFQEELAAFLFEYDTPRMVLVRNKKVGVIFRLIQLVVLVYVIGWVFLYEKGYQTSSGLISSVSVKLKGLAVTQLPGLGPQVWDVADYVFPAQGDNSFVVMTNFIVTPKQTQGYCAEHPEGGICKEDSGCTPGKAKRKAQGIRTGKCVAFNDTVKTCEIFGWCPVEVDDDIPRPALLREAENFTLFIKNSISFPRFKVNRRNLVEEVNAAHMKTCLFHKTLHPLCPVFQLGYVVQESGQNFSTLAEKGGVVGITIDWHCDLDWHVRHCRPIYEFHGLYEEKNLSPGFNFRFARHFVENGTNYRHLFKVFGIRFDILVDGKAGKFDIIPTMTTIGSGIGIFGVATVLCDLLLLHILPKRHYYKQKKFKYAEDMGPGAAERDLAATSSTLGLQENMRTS
The note with it: read-out: IC50 P2X1; cited from earlier work.

A further assay concerns the target P2X6 (Homo sapiens, UniProt O15547). As to conditions: read-out: IC50 P2X6; cited from earlier work.

The term IC50 denotes the midpoint of a concentration-inhibition curve.

Entries after “also recorded” stand apart in the source; their conditions may differ. Counter-ions that a name gives are not always drawn.

P2X6, sequence (O15547 whole entry, species assumed): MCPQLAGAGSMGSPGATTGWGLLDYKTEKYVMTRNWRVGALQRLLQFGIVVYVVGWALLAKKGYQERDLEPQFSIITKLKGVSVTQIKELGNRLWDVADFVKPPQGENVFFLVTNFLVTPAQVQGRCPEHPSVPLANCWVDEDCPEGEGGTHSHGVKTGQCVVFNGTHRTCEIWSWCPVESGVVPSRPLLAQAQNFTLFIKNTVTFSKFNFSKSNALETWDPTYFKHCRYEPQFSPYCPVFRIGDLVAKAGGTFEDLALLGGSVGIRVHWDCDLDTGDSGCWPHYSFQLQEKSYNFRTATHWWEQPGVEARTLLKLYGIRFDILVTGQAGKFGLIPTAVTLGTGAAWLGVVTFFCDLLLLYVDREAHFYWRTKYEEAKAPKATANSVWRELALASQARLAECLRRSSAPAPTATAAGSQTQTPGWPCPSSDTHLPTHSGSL

Take “1-amino-4-[[4-[[4-chloro-6-[[3 (or 4)-sulfophenyl]amino]-1,3,5-triazin-2-yl]amino]-3-sulfophenyl]amino]-9,10-dihydro-9,10-dioxo-2-anthracenesulfonic acid [RB-2]”: the IC50 on P2X2 was 1 µM.
As to `CCN(CC)c1ncnc2c1ncn2[C@@H]1O[C@H](COP(=O)(O)OP(=O)(O)C(Br)(Br)P(=O)(O)O)[C@@H](O)[C@H]1O` [ARL67156], the “ATP concentration after OGD” value in assay [1] (1h OGD, ARL67156 100 µM, percentage vs control, OGD alone 181.2 ± 25.3 %) turned out to be 439.6 ± 71.0%. Also, in assay [1] (ARL67156 100 µM), the “ATP release after 1h OGD” value is “potentiated”. Besides, in assay [2], the “OGD-induced oligodendrocyte cell death” value is on record as “increased; also recorded: potentiated”.
With `O=C(O)c1ccccc1Nc1cccc(C(F)(F)F)c1` [FFA, 2-[3-(trifluoromethyl)anilino]benzoic acid], the “ischaemia-induced damage to optic nerves (LDH release)” value in the assay with optic nerves is reported as “reduced; also recorded: attenuated”. Besides, the “ATP levels after OGD” value in assay [1] (1h OGD in the presence of ARL67156, CBX 20 µM, FFA 100 µM, MFQ 1 nM (figure legend)) is recorded as “significantly reduced”. Moreover, the “OGD-induced oligodendrocyte cell death” value in assay [2] is “inhibited”.
As to `NC(N)=NC(=O)c1nc(Cl)c(N2CCCCCC2)nc1N` [HMA], on P2X7, the IC50 is 4.5 µM.
As for `CN([C@@H](Cc1ccc(OS(=O)(=O)c2cccc3cnccc23)cc1)C(=O)N1CCN(c2ccccc2)CC1)S(=O)(=O)c1cccc2cnccc12` [KN-62, ester of 4-[(2S)-2-[(5-isoquinolinylsulfonyl)methylamino]-3-oxo-3-(4-phenyl-1-piperazinyl)propyl] phenyl isoquinolinesulfonic acid], the half-inhibitory concentration (IC50) at P2X7 is 0.015 µM.
Take `Cc1nc(N=Nc2cc(S(=O)(=O)O)ccc2S(=O)(=O)O)c2c(c1O)COP(=O)(O)OC2` [MRS2220, cyclic pyridoxine-alpha.4,5-monophosphate-6-azo-phenyl-2',5'disulfonate]: the IC50 was 58 µM at P2X3 and 10 µM at P2X1.
As for `O=C(Nc1ccc(C(=O)Nc2ccc(C(=O)Nc3ccc(S(=O)(=O)O)c4cc(S(=O)(=O)O)cc(S(=O)(=O)O)c34)cc2)cc1)Nc1ccc(C(=O)Nc2ccc(C(=O)Nc3ccc(S(=O)(=O)O)c4cc(S(=O)(=O)O)cc(S(=O)(=O)O)c34)cc2)cc1` [NF279], the IC50 at P2X3 was 1.6 µM; on P2X2, 0.77 µM; at P2X1 it was 2 µM; at P2X7 it was 2.8 µM.
Consider `O=C(Nc1cc(C(=O)Nc2ccc(S(=O)(=O)O)cc2S(=O)(=O)O)cc(C(=O)Nc2ccc(S(=O)(=O)O)cc2S(=O)(=O)O)c1)Nc1cc(C(=O)Nc2ccc(S(=O)(=O)O)cc2S(=O)(=O)O)cc(C(=O)Nc2ccc(S(=O)(=O)O)cc2S(=O)(=O)O)c1` [NF449, octasodium salt of 4,4',4",4"'-(carbonylbis(imino-5,1,3-benzenetriylbis(carbonylimino)))tetrakis-benzene-1,3-disulfonic acid], for which the IC50 at P2X3 was below 0.006 µM.
On to `Cc1nc(N=Nc2cc(S(=O)(=O)O)c3cc([N+](=O)[O-])cc(S(=O)(=O)O)c3c2)c(CO[P+]([O-])(O)O)c(C=O)c1O` [PPNDS], for which the IC50 on P2X2 was 0.015 µM.
For `Cc1ccc(C(=O)Nc2ccc(S(=O)(=O)O)c3cc(S(=O)(=O)O)cc(S(=O)(=O)O)c23)cc1NC(=O)c1cccc(NC(=O)Nc2cccc(C(=O)Nc3cc(C(=O)Nc4ccc(S(=O)(=O)O)c5cc(S(=O)(=O)O)cc(S(=O)(=O)O)c45)ccc3C)c2)c1` [Suramin, hexasodium salt of 8,8'-[carbonylbis[imino-3,1-phenylenecarbonylimino(4-methyl-3,1-phenylene)carbonylimino]] bisnaphthalene-1,3,5-trisulphonic acid], the figures for the half-inhibitory concentration (IC50) on P2X6 and on P2X2 were above 100 µM and 1 to 5 µM, respectively.
Turning to `Nc1ncnc2c1ncn2[C@@H]1O[C@H](COP(=O)(O)OP(=O)(O)OP(=O)(O)O)[C@H]2OC3(O[C@H]21)C([N+](=O)[O-])=CC(=[N+]([O-])[O-])C=C3[N+](=O)[O-]` (stereo partly shown) [TNP-ATP, monolithium salt of 2',3'-O-2,4,6-trinitrophenyl-adenosine 5'-triphosphate], on P2X7, the IC50 is above 30 µM.
Regarding `Cc1nc(/N=N/c2cc(S(=O)(=O)O)ccc2S(=O)(=O)O)c(COP(=O)(O)O)c(C=O)c1O` [isoPPADS, tetrasodium salt of pyridoxalphosphate-6-azophenyl-1',4'-disulfonic acid], the results for the half-maximal inhibitory concentration (IC50) on P2X3 and at P2X1 were 1 µM and 1 to 5 µM, respectively.
